# Data: patent EP0435693B1, “Pharmaceutical compositions containing 3-oxygermylpropionic acid polymers for inhibiting the degeneration of cells” (SANWA KAGAKU KENKYUSHO CO., LTD., priority 1989, dated 1991)
# Key:
# MRL/1 masculine mice = test: Prevention of spontaneous nephritis of MRL/1 mice; type: in vivo; design: Blood-urinary nitrogen levels, BUN: unit not given here; conditions: for Blood-urinary nitrogen levels, BUN: day following the final administration
# Experimental: The action of SK-818 on preventing the development of spontaneous nephritis of MRL/1 mice (or an impairment of the functioning of the kidney asaociated with aging) was examined.
# Given amounts (0.1 mg/kg, 1.0 mg/kg and 10.0 mg/kg a day) of SK-818, in the form of a mixture of the composition of Preparation Ex. 1 with feed, were administered orally MRL/1 masculine mice of six-week age (16 for each group) twice a week over 12 weeks. In the meantime, urinary protein was measured once a week; urinary protein levels exceeding 100 mg/dl were taken as positive. Examination was then made of how many animals became positive at the respective week-ages. Moreover, blood-urinary nitrogen levels were determined on the day following the final administration to make serological/physiological and pathological estimations of the action of SK-818 on nephritis.
# The urinary protein and blood-urinary nitrogen levels were measured with Protein Pre-test (made by Wako Junyaku K.K.) and Urinary Nitrogen B-Test according to the urease/indophenol method (made by Wako Junyaku K.K.), respectively.
# Type B chronic hepatitis = test: Clinical test for Type B chronic hepatitis against placebo; type: in vivo, patients
# Experimental: The efficacy of SK-818 against Type B chronic hepatitis was examined, using a placebo as control.
# The subjects were patients who had been diagnosed by biopsy as chronic hepatitis before at most one year in principle, were positive to HBe antigens and had Type B chronic hepatitis in need of treatment.
# • (i) The drug under test was a capsule containing 10 mg of SK-818. • (ii) The control consisted only of lactose (a placebo).
# The subjects followed the standard prescription of three capsules a day and one capsule each meal over 16 weeks in principle.
# The general examination of the functioning of the livers and blood and the measurement of HBe antigens and antibodies were all carried out by the Virus Hepatitis Research Foundation.
# [1] = SK-818 against Placebo, time points with significance
# [2] = determined by physicians, Total 95
substance,measurement,setting,value
3-oxygermylpropionic acid [SK-818],Number of animals with positive urinary protein levels,"MRL/1 masculine mice; 0.1 mg/kg, 16 week-age, positive = exceeding 100 mg/dl",4/15
same,Number of animals with positive urinary protein levels,"MRL/1 masculine mice; 0.1 mg/kg, 17 week-age",7/15
same,Number of animals with positive urinary protein levels,"MRL/1 masculine mice; 0.1 mg/kg, 18 week-age",10/15
same,"Blood-urinary nitrogen levels, BUN",MRL/1 masculine mice; 0.1 mg/kg,32.2±1.6
same,Number of animals with positive urinary protein levels,"MRL/1 masculine mice; 1 mg/kg, 16 week-age",4/15
same,Number of animals with positive urinary protein levels,"MRL/1 masculine mice; 1 mg/kg, 17 week-age",6/15
same,Number of animals with positive urinary protein levels,"MRL/1 masculine mice; 1 mg/kg, 18 week-age",8/15
same,"Blood-urinary nitrogen levels, BUN",MRL/1 masculine mice; 1 mg/kg,35.5±3.3
same,Number of animals with positive urinary protein levels,"MRL/1 masculine mice; 10 mg/kg, 16 week-age",2/15
same,Number of animals with positive urinary protein levels,"MRL/1 masculine mice; 10 mg/kg, 17 week-age",4/15
same,Number of animals with positive urinary protein levels,"MRL/1 masculine mice; 10 mg/kg, 18 week-age",8/15
same,"Blood-urinary nitrogen levels, BUN",MRL/1 masculine mice; 10 mg/kg,29.3±1.7
same,increase in the blood-urinary nitrogen levels,MRL/1 masculine mice; At 10 mg/kg,significantly inhibited
same,increase in the urinary protein levels,MRL/1 masculine mice; At 10 mg/kg,remarkably inhibited
same,glomeruli that become more morbid,"MRL/1 masculine mice; groups medicated with SK-818, control group 57 %",23-34%
same,GOT,Type B chronic hepatitis; 4W,↓ *
same,GPT,Type B chronic hepatitis; 4W,↓ *
same,HBe antibodies (RIA%),Type B chronic hepatitis; 4W,↑ *
same,HBe antigens (EIA) log,Type B chronic hepatitis; 4W,↓***
same,LDH (mu/ml),Type B chronic hepatitis; 4W,↓ +
same,Total Bilirubin (mg/dl),Type B chronic hepatitis; 4W,↓ *
same,AIP (KA),Type B chronic hepatitis; 8W,↓ +
same,Cholinesterase (ΔPH),Type B chronic hepatitis; 8W,↑ *
same,GOT,Type B chronic hepatitis; 8W,↓ +
same,GPT,Type B chronic hepatitis; 8W,↓**
same,HBe antibodies (RIA%),Type B chronic hepatitis; 8W,↑ *
same,HBe antigens (EIA) log,Type B chronic hepatitis; 8W,↓ **
same,LDH (mu/ml),Type B chronic hepatitis; 8W,↓ +
same,Total Cholesterol (mg/dl),Type B chronic hepatitis; 8W,↑ *
same,AIP (KA),Type B chronic hepatitis; 12W,↓ +
same,Cholinesterase (ΔPH),Type B chronic hepatitis; 12W,↑ *
same,GOT,Type B chronic hepatitis; 12W,↓***
same,GPT,Type B chronic hepatitis; 12W,↓***
same,HBe antibodies (RIA%),Type B chronic hepatitis; 12W,↑ **
same,HBe antigens (EIA) log,Type B chronic hepatitis; 12W,↓***
same,LDH (mu/ml),Type B chronic hepatitis; 12W,↓ *
same,Serum Albumin (g/dl),Type B chronic hepatitis; 12W,↑ *
same,TTT,Type B chronic hepatitis; 12W,↓**
same,Total Cholesterol (mg/dl),Type B chronic hepatitis; 12W,↑ *
same,ZTT,Type B chronic hepatitis; 12W,↓**
same,γ-GTP (mu/ml),Type B chronic hepatitis; 12W,↓**
same,γ-Globulin (g/dl),Type B chronic hepatitis; 12W,↓**
same,GOT,Type B chronic hepatitis; 16W,↓***
same,GPT,Type B chronic hepatitis; 16W,↓***
same,HBe antibodies (RIA%),Type B chronic hepatitis; 16W,↑ *
same,HBe antigens (EIA) log,Type B chronic hepatitis; 16W,↓***
same,Serum Albumin (g/dl),Type B chronic hepatitis; 16W,↑ +
same,TTT,Type B chronic hepatitis; 16W,↓***
same,Total Cholesterol (mg/dl),Type B chronic hepatitis; 16W,↑ *
same,ZTT,Type B chronic hepatitis; 16W,↓**
same,γ-GTP (mu/ml),Type B chronic hepatitis; 16W,↓ **
same,γ-Globulin (g/dl),Type B chronic hepatitis; 16W,↓***
same,Cholinesterase (ΔPH),Type B chronic hepatitis; Af4W (after 4 weeks),↑ *
same,GOT,Type B chronic hepatitis; Af4W (after 4 weeks),↓ **
same,GPT,Type B chronic hepatitis; Af4W (after 4 weeks),↓ **
same,HBe antibodies (RIA%),Type B chronic hepatitis; Af4W (after 4 weeks),↑ *
same,HBe antigens (EIA) log,Type B chronic hepatitis; Af4W (after 4 weeks),↓***
same,TTT,Type B chronic hepatitis; Af4W (after 4 weeks),↓***
same,ZTT,Type B chronic hepatitis; Af4W (after 4 weeks),↓**
same,γ-GTP (mu/ml),Type B chronic hepatitis; Af4W (after 4 weeks),↓ **
same,γ-Globulin (g/dl),Type B chronic hepatitis; Af4W (after 4 weeks),↓***
same,Cholinesterase (ΔPH),Type B chronic hepatitis; Af8W (after 8 weeks),↑**
same,GOT,Type B chronic hepatitis; Af8W (after 8 weeks),↓ **
same,GPT,Type B chronic hepatitis; Af8W (after 8 weeks),↓ **
same,HBe antibodies (RIA%),Type B chronic hepatitis; Af8W (after 8 weeks),↑ **
same,HBe antigens (EIA) log,Type B chronic hepatitis; Af8W (after 8 weeks),↓***
same,TTT,Type B chronic hepatitis; Af8W (after 8 weeks),↓ *
same,Total Cholesterol (mg/dl),Type B chronic hepatitis; Af8W (after 8 weeks),↑*
same,ZTT,Type B chronic hepatitis; Af8W (after 8 weeks),↓ *
same,γ-GTP (mu/ml),Type B chronic hepatitis; Af8W (after 8 weeks),↓ *
same,γ-Globulin (g/dl),Type B chronic hepatitis; Af8W (after 8 weeks),↓ *
same,"Cholinesterase (ΔPH), Differences between groups",Type B chronic hepatitis; [1],4w* 12W** Af4W* 8w** 16w* Af8w+
same,"GPT, Differences between groups",Type B chronic hepatitis; [1],8w* 12w** 16W* Af4w*
same,"HBe antibodies (RIA%), Differences between groups",Type B chronic hepatitis; [1],4W* 12W* 16W* Af8w+
same,"HBe antigens (EIA) log, Differences between groups",Type B chronic hepatitis; [1],4W** 12W* 16W* Af4w*
same,"TTT, Differences between groups",Type B chronic hepatitis; [1],Af4w+
same,"Total Cholesterol (mg/dl), Differences between groups",Type B chronic hepatitis; [1],8W* 16W** 12W** Af8w*
same,"γ-Globulin (g/dl), Differences between groups",Type B chronic hepatitis; [1],12W+ Af4w* 16w+ Af8w+
same,"Rate of Amelioration, Slightly ameliorated or more","Type B chronic hepatitis; determined by physicians, P=0.0011 against placebo",57.9%
same,"Rate of Amelioration, Ameliorated to some or higher extent","Type B chronic hepatitis; determined by physicians, P=0.0114 against placebo",36.8
same,Degree of Amelioration: Ameliorated to some extent (number of cases),Type B chronic hepatitis; [2],23
same,Degree of Amelioration: Less aggravated (number of cases),Type B chronic hepatitis; [2],5
same,Degree of Amelioration: Nochange (number of cases),Type B chronic hepatitis; [2],31
same,Degree of Amelioration: Slightly ameliorated (number of cases),Type B chronic hepatitis; [2],20
same,Degree of Amelioration: aggravated (number of cases),Type B chronic hepatitis; [2],4
same,Degree of Amelioration: seriously aggravated (number of cases),Type B chronic hepatitis; [2],0
same,Degree of Amelioration: Remarkably ameliorated (number of cases),"Type B chronic hepatitis; determined by physicians, Total 95, 10 mg capsule three a day over 16 weeks",12
